Here are results for one compound from patent publication US20200246493A1, “DRUG-IODINATED OIL DISPERSION, METHOD FOR PREPARING SAME AND ITS APPLICATION IN EMBOLIZATION TREATMENT FOR LIVER CANCER” (Xiamen University, priority 2019, published 2020).

The conditions of this data set: fluorescence intensity over time.

Molecules are shown by their SMILES.

Consider `CC1(C)C(/C=C/C=C/C=C/C=C2\N(CCCCS(=O)(=O)O)c3ccc4ccccc4c3C2(C)C)=[N+](CCCCS(=O)(=O)[O-])c2ccc3ccccc3c21` [ICG, indocyanine green], for which the fluorescence half-life result is “about three”.
